Measured values published in patent publication US20250177324A1, “A[…], AND PREPARATION METHOD THEREFOR AND USE THEREOF” (SHANGHAI ZHIGEN PHARMACEUTICAL & TECHNOLOGY CO. LTD., priority 2022, published 2025).
Where a name gives a salt, the structure may show the parent alone. Read-outs that look alike come from different tables or passages of the source.

Experiments:
[1] = test system: C57 mice; experiment: Forced swim test of oral administration in mice (antidepressant activity); assay type: in vivo; conditions: for inhibition in vivo at 20 mg/kg: Mus musculus, po
Procedure: To investigate the effects of different compounds on depression-like behavior in C57 mice by single oral administration of 20 mg/kg for 1 h and 24 h followed by forced swimming experiment, respectively.
The experimental animals were 6-week-old C57 mice, male, C57 breed mice purchased from Shanghai Slaughter Laboratory Animal Co. Ltd, weighing 20.45±0.19 g. The animals arrived at the Animal Breeding Center of the Shanghai Institute of Pharmaceutical Sciences, Chinese Academy of Sciences (Animal Production License: SCXK9[Shanghai]2004-0002, Use License: SYXK [Shanghai]2003-0029) before the experiments and were acclimated to the animal facilities for more than 3 days, 6 animals/cage were feed. The feeding environment was room temperature 23±0.2° C. and 12/12 h day/night alternating light and dark. Prior to behavioral testing, animals were moved to the behavioral testing room 2 hours in advance to acclimatize them to the environment and reduce their nervousness.
Preparation of the test material: the test compounds were weighed and dissolved in 0.9% NaCl solution, mixed well, and prepared into 1 mg/ml and 2 mg/ml solution for use, respectively.
24 h prior to drug administration, mice were placed in a cylindrical tank to acclimatize to the water environment for 10 min. On the day of the behavioral test, the animals were administered the drug once, by gavage/intraperitoneal injection at 1 h and 24 h prior to the behavioral test, respectively (as shown in Table 1).
The antidepressant effect of the compounds was evaluated by their ability to cause a reduction in the immobility time of the animals in the forced swim test compared to the blank group.

[2] = Brain tissue distribution study in rats; assay type: in vivo; conditions: SD rats, 10 mg/kg gavage
Procedure: Healthy male SD rats, randomly grouped with 3 rats in each group, were given the test compounds by gavage.
Each test compound was dissolved in saline to form a certain concentration solution for administration.
Fasting but not abstaining from water for 12-14 hours on the day before administration, and food was given 4 h after administration.
Brain tissues were collected after the animals were bled, cleaned, and homogenized with 50% ice methanol 1:4 (m/v). The collection time points were 5 min, 10 min, 30 min, and 2 h after the administration of subjects; 30.0 μL of tissue samples were taken (the samples were taken from the refrigerator at −80° C. and vortexed for 30 s after natural dissolution at room temperature) into 1.5 mL centrifugal tubes, and 300.0 μL of the internal standard solution (30 ng/mL buspirone in acetonitrile) was added; the samples were vortexed for 60 s, and centrifuged for 3 min (the centrifugal force was 12,000 rpm). 75 μL of the supernatant was transferred to a 96-well plate containing an equal volume of water, shaken to mix well and then sampled for LC-MS/MS analysis, the sample volume is 10 μL.

[3] = Solid-state chemical stability under different storage conditions (liquid chromatography); assay type: physicochemical; conditions: for Stability of solid state compound, 0 Days (%): liquid chromatography
Procedure: The HPLC conditions were as follows:
Configuration of test solution: appropriate amount of sample was dissolved and diluted with a diluent (0.03 mol/L phosphate buffer-acetonitrile (80:20)) to make 1 mg/mL solution.
Chromatographic conditions: according to the high performance liquid chromatography (Chinese Pharmacopoeia 2020 version of the four general 0512) test, using octadecyl-bonded silica gel (Agilent Eclipse Plus C18, 4.6 mm*250 mm, 5.0 μm, P/N for 959990-902 or a chromatographic column with equivalent performance) as a filler; 0.03 mol/L phosphate buffer (4.08 g of potassium dihydrogen phosphate was dissolved in 1000 ml of water and shaken well) was used as mobile phase A and acetonitrile as mobile phase B at a flow rate of 1 ml/min, the column temperature was 30° C., the detection wavelength was 220 nm, the injection volume was 10 ul, and the sample plate was controlled to 8° C. and running for 65 min. Gradient elution was performed according to the following table: […]
Configuration of test solution: appropriate amount of the product was dissolved and diluted with a diluent (0.1% phosphoric acid-acetonitrile (80:20)) to make 1 mg/mL solution.
Chromatographic conditions: according to the high performance liquid chromatography (Chinese Pharmacopoeia 2020 version of the four general 0512) test, using octadecyl bonded silica gel (Agilent Eclipse Plus C18, 4.6 mm*250 mm, 5.0 μm, P/N 959990-902 or a chromatographic column with equivalent performance) as a filler; 0.1% phosphate buffer (1 ml of phosphoric acid in 1000 ml of water and shake well) as mobile phase A, acetonitrile as mobile phase B, flow rate of 1 ml/min, column temperature of 30° C., detection wavelength of 220 nm, injection volume of 10 ul, running for 48 minutes. Gradient elution was performed according to the following table: […]

[4] = reduction of immobility time vs blank group, single gavage 20 mg/kg, test 1 h after dosing, read-out: 1 h inhibition (%)
[5] = reduction of immobility time vs blank group, single gavage 20 mg/kg, test 24 h after dosing, read-out: 24 h inhibition (%)

| Structure (SMILES) | Stability of solid state compound, 0 Days (%) ([3]; 40° C., 75% RH) | Stability of solid state compound, 5 Days (%) ([3]; 40° C., 75% RH) | Stability of solid state compound, 10 Days (%) ([3]; 40° C., 75% RH) | inhibition in vivo at 20 mg/kg [1, 4] [%] | inhibition in vivo at 20 mg/kg [1, 5] [%] | Stability of solid state compound, 30 Days (%) ([3]; 40° C., 75% RH) | other results |
| --- | --- | --- | --- | --- | --- | --- | --- |
| N[C@@]1(c2ccccc2Cl)CCC[C@@H](O)C1=O [(2R,6R)-HNK, reference compound] | 99.18 | 98.54 | 97.85 | – | – | – | 1 h inhibition (%) ([1]; reduction of immobility time vs blank group, single gavage 20 mg/kg, test 1 h after dosing): 21.1 ± 1.4%; 24 h inhibition (%) ([1]; reduction of immobility time vs blank group, single gavage 20 mg/kg, test 24 h after dosing): 24.8 ± 6.9%; brain/plasma ratio [2]: 0.95; AUC0-t brain ([2]; brain): 2480 ng·h/g; Cmax brain ([2]; brain): 1495 ng/g; AUC0-t plasma ([2]; plasma): 2610 ng·h/mL; Cmax plasma ([2]; plasma): 1480 ng/mL |
| Cl.N[C@@]1(c2ccc(C(F)(F)F)cc2)CCC[C@@H](O)C1=O [Comparative compound 1, reference compound] | 99.98 | 98.94 | 98.74 | 30.6 ± 3.1 | 35 ± 0.3 | 95.88 | Stability of solid state compound, 60 Days (%) ([3]; 40° C., 75% RH): 91.57% |
| CC1(C)CC[C@@](N)(c2ccccc2Cl)C(=O)[C@@H]1O [Comparative compound 4, reference compound] | – | – | – | 2.9 ± 1 | -17.2 ± 2 | – | – |
| N[C@@]1(c2ccccc2Cl)CC2(CC2)C[C@@H](O)C1=O [Comparative compound 5, reference compound] | – | – | – | 22.8 ± 2.5 | 19.1 ± 2.1 | – | – |
| CC1(C)C[C@@H](O)C(=O)[C@](N)(c2ccccc2Cl)C1 [Comparative compound 6, reference compound] | – | – | – | 18.2 ± 1.6 | 11.3 ± 2 | – | – |
| C[C@@]1(O)CCC[C@@](N)(c2ccc(C(F)(F)F)cc2)C1=O.Cl [Compound 52, (2R, 6R)-2-amino-6-hydroxy-6-methyl-2-(4-(trifluoromethyl)phenyl)cyclohexan-1-one hydrochloride] | 99.89 | – | 99.89 | 29.5 ± 1.1 | 25.6 ± 2.1 | 99.90 | Stability of solid state compound, 60 Days (%) ([3]; 40° C., 75% RH): 99.88%; Stability of solid state compound, 180 Days (%) ([3]; 40° C., 75% RH, 180 days): 99.82% |
| C[C@]1(O)CCC[C@@](N)(c2ccc(C(F)(F)F)cc2)C1=O.Cl [Compound 54, (2R, 6S)-2-amino-6-hydroxy-6-methyl-2-(4-(trifluoromethyl)phenyl)cyclohexan-1-one hydrochloride] | 99.27 | – | 99.23 | 33 ± 2.5 | 38.7 ± 3.3 | – | Stability of solid state compound, 60 Days (%) ([3]; 40° C., 75% RH): 99.20% |
| CN[C@@]1(c2cccc(OC(F)(F)F)c2F)CCC[C@](C)(O)C1=O [Compound 57, (2R,6S)-2-(2-fluoro-3-(trifluoromethoxy)phenyl)-6-hydroxy-6-methyl-2-(methylamino)cyclohexan-1-one hydrochloride] | – | – | – | 42.2 ± 1.8 | 36.5 ± 3 | – | – |
| CNC1(c2cccc(F)c2F)CCCC(C)(O)C1=O.Cl (stereo not shown) [Compound 65, 2-(2,3-difluorophenyl)-6-hydroxy-6-methyl-2-methylaminocyclohexan-1-one hydrochloride] | 99.54 | 99.37 | 99.32 | 26.4 ± 1.1 | 37.9 ± 2.3 | 99.22 | – |
| CN[C@@]1(c2cccc(OC(F)(F)F)c2)CCC[C@](C)(O)C1=O.Cl [Compound 68, (2S,6R)-2-hydroxy-2-methyl-6-methylamino-6-(3-(trifluoromethoxy)phenyl)cyclohexan-1-one hydrochloride] | 99.12 | 99.11 | 99.12 | 26.2 ± 4.1 | 37.4 ± 0.7 | – | – |
| CN[C@@]1(c2ccc(C(F)(F)F)cc2)CCC[C@@](C)(O)C1=O.Cl [Compound 71, (2R,6R)-2-hydroxy-2-methyl-6-methylamino-6-(4-(trifluoromethyl)phenyl)cyclohexan-1-one hydrochloride] | 99.67 | 99.46 | 99.46 | 42.4 ± 0.4 | 40.2 ± 1.6 | 99.45 | – |
| Cl.[2H]C([2H])([2H])N[C@@]1(c2ccc(C(F)(F)F)cc2)CCC[C@](C)(O)C1=O [Compound 76, (2S,6R)-2-hydroxy-2-methyl-6-trideutero-methylamino-6-(4-(trifluoromethyl)phenyl)cyclohexan-1-one hydrochloride] | 99.88 | – | 99.65 | 65.2 ± 0.8 | 47.1 ± 3.2 | 99.84 | – |
| CCN[C@@]1(c2ccc(C(F)(F)F)cc2)CCC[C@](C)(O)C1=O.Cl [Compound 77, (2R,6S)-2-ethylamino-6-hydroxy-6-methyl-2-(4-(trifluoromethyl)phenyl)cyclohexan-1-one hydrochloride] | – | – | – | 69.8 ± 1.6 | 44.3 ± 3.5 | – | Stability of solid state compound, 0 Days (%) ([3]; 25° C., 60% RH): 99.70%; Stability of solid state compound, 10 Days (%) ([3]; 25° C., 60% RH): 99.69%; Stability of solid state compound, 30 Days (%) ([3]; 25° C., 60% RH): 99.70% |
| CNCCC(Oc1ccc(C(F)(F)F)cc1)c1ccccc1 (stereo not shown) [Fluoxetine, reference compound] | – | – | – | 2.4 ± 1.1 | 2.3 ± 3.1 | – | antidepressant effect in the forced swim test (in words) ([1]; oral administration, 1 h and 24 h): did not show antidepressant effect |
